Patent US12054744B2, “NK cells exhibiting an adaptive phenotype and methods for preparing and for using” (Regents of the University of Minnesota, priority 2015, dated 2024)
Several values for one entry are separate records, joined by “and”; a condition that tells them apart may be missing. Equal values may be shown once.

Key:
Assay type in all cases: cell-based, human
[1] = tested on: cord blood-derived CD56^+ NK cells; assay: Cord blood-derived NK cell culture on OP9 native or OP9-DL1 stromal cells with IL-15 with or without IL-21; FACS for CD57 and SYK
Experimental: OP9 stromal cells transduced with either the empty MigR1 retroviral vector (OP9 native) or with the MigR1 retroviral vector containing the Delta-like 1 gene (OP9-DL1) (Schmitt et al. Immunity. 2002; 17(6):749-756) were cultured in MEMα media+20% fetal bovine serum (FBS) at a concentration of 4×10^5 cells/well in 24-well plates for two days to allow for cell adherence. Plates were then irradiated with 2,000 cGy to stop cell proliferation.
(§1) Mononuclear cells were isolated from whole cord blood by density gradient centrifugation. T cells and B cells were depleted by positive magnetic selection using anti-CD3 and anti-CD19 microbeads, respectively. CD3/CD19-depleted cells were then added to irradiated OP9 cells at a concentration of 5×10^5 cells/well and cultured for 14 days in RPMI media+10% FBS supplemented with either 1 ng/mL IL-15 or 10 ng/mL IL-15 with or without 50 ng/mL IL-21.
(§2) Cord blood-derived NK cells were analyzed before culture and after 7 and 14 days of culture by fluorescence activated cell sorting (FACS) using the following extracellular and intracellular antibodies: BV785-conjugated anti-CD3 (BioLegend, San Diego, CA), PE-Cy7-conjugated anti-CD56 (BioLegend, San Diego, CA), BV605-conjugated anti-CD57 (BioLegend, San Diego, CA), APC-conjugated SYK (eBioscience, San Diego, CA), and PE-conjugated anti-PLZF (BD Biosciences, San Jose, CA).
The Notch signaling pathway plays an essential role in effector CD8^+ T cell differentiation and controls the acquisition of effector function (Backer et al. Nat Immunol. 2014; 15(12):1143-1151). To determine if Notch signaling could play a role in driving the differentiation and expansion of terminally differentiated and adaptive NK cell subsets, CD3/CD19-depleted mononuclear cells were cultured from cord blood on native OP9 stromal cells or OP9 stromal cells stably transduced with the Notch ligand DL1 in the presence of low-dose (1 ng/mL) IL-15 or high-dose (10 ng/mL) IL-15 with or without IL-21 (50 ng/mL). Cells were harvested at days 7 and 14, and CD56^+ NK cells were analyzed by fluorescence activated cell sorting (FACS) for expression of CD57 and SYK. Prior to culture, an average of 2.13%±0.44 of CD56^+ NK cells expressed CD57.

[2] = tested on: PLZF expression in cord blood-derived CD56^dim NK cells; assay: Intracellular PLZF staining of cord blood-derived CD56^dim NK cells after 14 days in culture; details: high-dose IL-15, IL-21 where added
Experimental: FIG. 6A. FACS plots of intracellular PLZF expression in cord blood-derived CD56^dim NK cells from a representative donor after 14 days in the indicated culture conditions. FIG. 6B. Cumulative data showing the percentage of PLZF″ NK cells after 14 days in each culture condition from 6 donors. Two independent experiments were performed. Error bars represent SEM.
as §1, §2
Transcriptional silencing of the transcription factor promyelocytic leukemia zinc finger (PLZF) is a hallmark of adaptive NK cells that expand in response to CMV infection (Schlums et al. Immunity. 2015; 42(3):443-456). Intracellular staining for PLZF was performed in NK cells from freshly isolated mononuclear cells and from cells that were cultured for 14 days in vitro. Freshly isolated CD56^dimSYK^− NK cells from cord blood were predominantly PLZF-positive (99.3%±0.10). […] Therefore, IL-21 drives down PLZF expression in CD56^dimSYK^− NK cells, causing these cells to acquire adaptive characteristics (FIG. 6).

[3] = tested on: NK cells from CMV seropositive donors; assay: Culture of CD3/CD19-depleted PBMCs with IL-15; FACS for CD45RA/CD45RO; details: autologous monocytes, 10 ng/mL IL-15, 7 days
Experimental: CD3/CD19-depleted peripheral blood mononuclear cells from typed healthy CMV seronegative and seropositive donors were cultured with 10 ng/mL IL-15. After 7 days, cells were harvested and analyzed by FACS. Shown are representative phenotypes from one CMV seropositive and one CMV seronegative donor both before and after culture (top). Cumulative data showing the percentages of CD3^−CD56^+CD45RA^−CD45RO^+ NK cells from five CMV seronegative and eight CMV seropositive donors pre- and post-culture are shown (bottom). Data are representative of two independent experiments. Paired student's t-tests were used to determine statistical significance within groups, and unpaired student's t-tests were used to determine statistical significance between groups (CMV seropositive and CMV seronegative). *p≤0.05, **p≤0.01, ***p≤0.001.
CD3/CD19-depleted peripheral blood mononuclear cells from typed healthy CMV seronegative and seropositive donors were cultured with 10 ng/mL IL-15. Percentages of CD3^−CD56^+CD45RA^−CD45RO^+ NK cells from CMV seronegative and CMV seropositive donors pre- and post-culture were measured using FACS.

[4] = OP9-DL1, high-dose (10 ng/mL) IL-15, day 7
[5] = OP9-DL1, high-dose (10 ng/mL) IL-15, day 14
[6] = OP9-DL1, low-dose (1 ng/mL) IL-15, day 7
[7] = OP9-DL1, low-dose (1 ng/mL) IL-15, day 14
[8] = OP9 native, high-dose (10 ng/mL) IL-15, day 7
[9] = OP9 native, high-dose (10 ng/mL) IL-15, day 14
[10] = OP9 native, low-dose (1 ng/mL) IL-15, day 7
[11] = OP9 native, low-dose (1 ng/mL) IL-15, day 14

## IL-15: cytokine in culture medium, low-dose 1 ng/mL or high-dose 10 ng/mL
[1]; [4]
  percentage of CD56^+ NK cells expressing CD57: 1.30%±0.31
  percentage of CD56^+ NK cells lacking SYK: 0.34%±0.04 and 0.67%±0.10
[1]; [5]
  percentage of CD56^+ NK cells expressing CD57: 0.86%±0.44
  percentage of CD56^+ NK cells lacking SYK: 0.43%±0.15
[1]; [6]
  percentage of CD56^+ NK cells expressing CD57: 0.91%±0.34
  percentage of CD56^+ NK cells lacking SYK: 0.25%±0.06
[1]; [7]
  percentage of CD56^+ NK cells expressing CD57: 0.93%±0.40
  percentage of CD56^+ NK cells lacking SYK: 0.17%±0.08
[1]; [8]
  percentage of CD56^+ NK cells expressing CD57: 0.70%±0.23
  percentage of CD56^+ NK cells lacking SYK: 0.21%±0.05
[1]; [9]
  percentage of CD56^+ NK cells expressing CD57: 0.22%±0.10
  percentage of CD56^+ NK cells lacking SYK: 0.43%±0.15
[1]; [10]
  percentage of CD56^+ NK cells expressing CD57: 0.59%±0.19
  percentage of CD56^+ NK cells lacking SYK: 0.18%±0.06
[1]; [11]
  percentage of CD56^+ NK cells expressing CD57: 0.24%±0.11
  percentage of CD56^+ NK cells lacking SYK: 0.07%±0.03
[2]; CD56^dimCD57^−SYK^+ NK cells
  decrease in PLZF expression (percentage of PLZF-negative NK cells): 9.93%±0.75
[2]; CD56^dimCD57^−SYK^− NK cells
  decrease in PLZF expression (percentage of PLZF-negative NK cells): 7.05%±1.31
[3]
  CD45RA/CD45RO phenotype of NK cells: skew towards a CD45RA^−CD45RO^+ phenotype
